Here are results for 23 compounds from patent US20220411449A1, “Method for Preparing Heteroleptic Triarylbismuthanes and Compounds Produced by the Same” (UNIVERSITY OF HAWAII, priority 2019, published 2022).

As usually defined, the zone of inhibition is the size of the clear area around the sample on an inoculated plate. For orientation: MIC means the smallest concentration in the dilution series that meets the test's criterion for growth inhibition.

≈ marks a conversion by molar mass, not a printed value.

In one test the test system is Escherichia coli. Briefly: Disk diffusion zone of inhibition. To be noted: for Antibacterial activity against E. coli, in words: disk diffusion, at the concentration tested; for Zone of Inhibition, E. coli: disks with 1-5 μg compound/disk, positive control 30 μg Tetracycline, 22 hours at 37° C., LB agar. Background: Agar diffusion results depend on both activity and mobility in agar.

In another test the test system is Staphylococcus aureus. Briefly: Disk diffusion zone of inhibition. To be noted: for Antibacterial activity against S. aureus, in words: disk diffusion, at the concentration tested; for Zone of Inhibition, S. aureus: disks with 1-5 μg compound/disk, positive control 5 μg Novobiocin, 22 hours at 37° C., LB agar.
The test system of test [1] is Vesicular Stomatitis Virus (Indiana strain). The format is cell-based.
Another test relates to E. coli. Briefly: Minimum Inhibitory Concentration (MIC) determination, 96-well plates, OD600. The note with it: for MIC, E. coli: 24 hours at 37° C., compounds tested at 0-40 μg/mL in duplicate, Kanamycin 0-4 μg/mL.
A further test deals with S. aureus. The test is described as above. The note with it: for MIC, S. aureus: 24 hours at 37° C., compounds tested at 0-5 μg/mL in duplicate, Kanamycin 0-4 μg/mL.

Take `COc1cc[c]([Bi]([c]2ccccc2)[c]2ccccc2)cc1` [Compound 3]: in the test with Escherichia coli, the “Antibacterial activity against E. coli, in words” value is listed as “little activity against E. coli” and the “Zone of Inhibition, E. coli” value worked out at 0 cm. Moreover, in the test on Staphylococcus aureus, the “Antibacterial activity against S. aureus, in words” value was “showed antibacterial activity against S. aureus” and the “Zone of Inhibition, S. aureus” value turned out to be 1 cm.
On to `COc1cc[c]([Bi]([c]2ccc(C#N)cc2)[c]2ccc(C#N)cc2)cc1` [Compound 9], for which, in the test with Escherichia coli, the “Antibacterial activity against E. coli, in words” value is “little activity against E. coli” and the “Zone of Inhibition, E. coli” value came out at 0 cm. In addition, in the test on Staphylococcus aureus, the “Antibacterial activity against S. aureus, in words” value is on record as “showed antibacterial activity against S. aureus” and the “Zone of Inhibition, S. aureus” value came out at 1 cm.
Taken in the same sequence, the figures for `Cc1cc[c]([Bi]([c]2c(C)cc(C)cc2C)[c]2c(C)cc(C)cc2C)cc1` [Compound 11] were “little activity against E. coli”, 0 cm, “showed antibacterial activity against S. aureus” and 0.8 cm.
With `Cc1ccc(S(=O)(=O)[O][Bi]([c]2ccccc2)[c]2ccccc2)cc1` [Compound 14], the “% Plaque Reduction” value in test [1] was 29.7%. In the test with Escherichia coli, the “Antibacterial activity against E. coli, in words” value was “weaker antimicrobial activity against E. coli” and the “Zone of Inhibition, E. coli” value turned out to be 1.3 cm. In the test on Staphylococcus aureus, the “Antibacterial activity against S. aureus, in words” value is reported as “most effective against S. aureus” and the “Zone of Inhibition, S. aureus” value came out at 2.1 cm. Besides, in the test on E. coli, the “MIC, E. coli” value was 10 µg/mL. In addition, the “MIC, S. aureus” value in the test with S. aureus was 0.625 µg/mL.
With `COc1cc[c]([Bi]([c]2ccc(C)cc2)[c]2ccc(OC)cc2)cc1` [Compound 12], in the test on Escherichia coli, the “Antibacterial activity against E. coli, in words” value was “little activity against E. coli” and the “Zone of Inhibition, E. coli” value worked out at 0 cm. In the test on Staphylococcus aureus, the “Antibacterial activity against S. aureus, in words” value is “showed antibacterial activity against S. aureus” and the “Zone of Inhibition, S. aureus” value was 1 cm.
Turning to `Cc1cc(C)[c]([Bi]([c]2ccccc2)[c]2ccccc2)c(C)c1` [Compound 5], in the test with Escherichia coli, the “Antibacterial activity against E. coli, in words” value is “weaker antimicrobial activity against E. coli” and the “Zone of Inhibition, E. coli” value came to 0 cm. In addition, in the test on Staphylococcus aureus, the “Antibacterial activity against S. aureus, in words” value is “most effective against S. aureus” and the “Zone of Inhibition, S. aureus” value is 1.6 cm. For the same compound, in the test with E. coli, the “MIC, E. coli” value turned out to be 40 µg/mL. Besides, the “MIC, S. aureus” value against S. aureus is 0.625 µg/mL.
Regarding `COC(OC)c1cc[c]([Bi]([c]2ccccc2)[c]2ccccc2)cc1` [Compound 1], the “Zone of Inhibition, E. coli” value with Escherichia coli amounted to 0 cm. The “Zone of Inhibition, S. aureus” value in the test with Staphylococcus aureus was 0 cm.
With `Cc1cc(C)[c]([Bi]([I])[c]2c(C)cc(C)cc2C)c(C)c1` [Compound 23], in the test on Escherichia coli, the “Antibacterial activity against E. coli, in words” value is recorded as “weaker antimicrobial activity against E. coli” and the “Zone of Inhibition, E. coli” value is recorded as 0.6 cm. In the test with Staphylococcus aureus, the “Antibacterial activity against S. aureus, in words” value is “most effective against S. aureus” and the “Zone of Inhibition, S. aureus” value is 0.9-1.9 cm.
For `COC(=O)c1cc[c]([Bi]([c]2ccccc2)[c]2ccccc2)cc1` [Compound 4], the “Zone of Inhibition, E. coli” value in the test with Escherichia coli is reported as 0 cm. Also, the “Zone of Inhibition, S. aureus” value with Staphylococcus aureus was found to be 0 cm.
As to `CN(C)[C@@H]1C(O)=C(C(N)=O)C(=O)[C@@]2(O)C(O)=C3C(=O)c4c(O)cccc4[C@@](C)(O)[C@H]3C[C@@H]12` [Tetracycline, reference compound], the zone of inhibition at 30 µg/disc in the test with Escherichia coli (Escherichia coli, 22 h, read-out: Zone of Inhibition, E. coli) was in the range of 18 to 25 mm.
For the compound `Cc1cc[c]([Bi]([O]S(=O)(=O)c2ccc(C)cc2)[O]S(=O)(=O)c2ccc(C)cc2)cc1` [Compound 21], in test [1], the “% Plaque Reduction” value is 38.7%. In the test on Escherichia coli, the “Antibacterial activity against E. coli, in words” value was “weaker antimicrobial activity against E. coli” and the “Zone of Inhibition, E. coli” value was found to be 1 cm. Further, in the test on Staphylococcus aureus, the “Antibacterial activity against S. aureus, in words” value is given as “most effective against S. aureus” and the “Zone of Inhibition, S. aureus” value amounted to 1.5 cm. Further, in the test with E. coli, the “MIC, E. coli” value is 40 µg/mL. In addition, the “MIC, S. aureus” value with S. aureus is reported as 1.25 μg/mL L.
For `[I][Bi]([c]1ccccc1)[c]1ccccc1` [Compound 18], the “% Plaque Reduction” value in test [1] is recorded as 99.95%. For the same compound, in the test on Escherichia coli, the “Antibacterial activity against E. coli, in words” value is reported as “weaker antimicrobial activity against E. coli” and the “Zone of Inhibition, E. coli” value was 1.3 cm. In the test on Staphylococcus aureus, the “Antibacterial activity against S. aureus, in words” value is reported as “most effective against S. aureus” and the “Zone of Inhibition, S. aureus” value stood at 2.2 cm. The “MIC, E. coli” value in the test with E. coli came out at 10 µg/mL. Moreover, the “MIC, S. aureus” value in the test on S. aureus was 0.625 µg/mL.
For `Cc1cc(C)[c]([Bi]([c]2ccccc2)[c]2c(C)cc(C)cc2C)c(C)c1` [Compound 8], in the test with Escherichia coli, the “Antibacterial activity against E. coli, in words” value is “little activity against E. coli” and the “Zone of Inhibition, E. coli” value came out at 0 cm. Further, in the test with Staphylococcus aureus, the “Antibacterial activity against S. aureus, in words” value is “showed antibacterial activity against S. aureus” and the “Zone of Inhibition, S. aureus” value is 1 cm.
As for `NC[C@H]1O[C@H](O[C@H]2[C@H](O)[C@@H](O[C@H]3O[C@H](CO)[C@@H](O)[C@H](N)[C@H]3O)[C@H](N)C[C@@H]2N)[C@H](O)[C@@H](O)[C@@H]1O` [Kanamycin, reference compound], the MIC with E. coli (Escherichia coli, 24 h, read-out: MIC, E. coli) amounted to 0.0625 µg/mL (≈ 0.129 µM); with S. aureus (Staphylococcus aureus, 24 h, read-out: MIC, S. aureus) it was 0.0625 µg/mL (≈ 0.129 µM).
For `COc1cc[c]([Bi]([c]2ccccc2)[c]2ccc(OC)cc2)cc1` [Compound 7], in the test with Escherichia coli, the “Antibacterial activity against E. coli, in words” value is on record as “little activity against E. coli” and the “Zone of Inhibition, E. coli” value is 0 cm. Besides, in the test on Staphylococcus aureus, the “Antibacterial activity against S. aureus, in words” value was “showed antibacterial activity against S. aureus” and the “Zone of Inhibition, S. aureus” value stood at 1.1 cm.
Consider `N#Cc1cc[c]([Bi]([c]2ccccc2)[c]2ccccc2)cc1` [Compound 6], for which the “Zone of Inhibition, E. coli” value in the test on Escherichia coli was 0 cm. In the test with Staphylococcus aureus, the “Zone of Inhibition, S. aureus” value was 0 cm.
For the compound `Cc1cc[c]([Bi]([c]2ccc(C#N)cc2)[c]2ccc(C#N)cc2)cc1` [Compound 10], in the test with Escherichia coli, the “Antibacterial activity against E. coli, in words” value was “little activity against E. coli” and the “Zone of Inhibition, E. coli” value came out at 0 cm. Moreover, in the test with Staphylococcus aureus, the “Antibacterial activity against S. aureus, in words” value is given as “showed antibacterial activity against S. aureus” and the “Zone of Inhibition, S. aureus” value was found to be 0.9 cm.
As to `Cc1cc[c]([Bi]([O]S(=O)(=O)c2ccc(C)cc2)[O]S(=O)(=O)c2ccc(C)cc2)cc1` [Compound 22], the “Zone of Inhibition, E. coli” value in the test with Escherichia coli stood at 0 cm.
`CO[C@@H]1[C@@H](OC(N)=O)[C@@H](O)[C@H](Oc2ccc3c(O)c(NC(=O)c4ccc(O)c(CC=C(C)C)c4)c(=O)oc3c2C)OC1(C)C` [Novobiocin, reference compound]: the zone of inhibition at 5 µg/disc with Staphylococcus aureus (Staphylococcus aureus, 22 h, read-out: Zone of Inhibition, S. aureus) lay in the range of 20 to 25 mm.
In the case of `COc1cc[c]([Bi]([c]2c(C)cc(C)cc2C)[c]2c(C)cc(C)cc2C)cc1` [Compound 2], in the test on Escherichia coli, the “Antibacterial activity against E. coli, in words” value is listed as “little activity against E. coli” and the “Zone of Inhibition, E. coli” value stood at 0 cm. Further, in the test on Staphylococcus aureus, the “Antibacterial activity against S. aureus, in words” value is given as “showed antibacterial activity against S. aureus” and the “Zone of Inhibition, S. aureus” value is recorded as 1 cm.
With `Cc1cc[c]([Bi]([O]S(=O)(=O)c2ccc(C)cc2)[c]2ccc(C)cc2)cc1` [Compound 19], the “% Plaque Reduction” value in test [1] amounted to 76.6%. In addition, in the test on Escherichia coli, the “Antibacterial activity against E. coli, in words” value was “weaker antimicrobial activity against E. coli” and the “Zone of Inhibition, E. coli” value is given as 0.8 cm. Also, in the test on Staphylococcus aureus, the “Antibacterial activity against S. aureus, in words” value was “most effective against S. aureus” and the “Zone of Inhibition, S. aureus” value is listed as 1.8 cm. For the same compound, the “MIC, E. coli” value in the test with E. coli is on record as “No inhibition”. Further, the “MIC, S. aureus” value in the test with S. aureus worked out at 2.5 µg/mL.
Regarding `Cc1ccc(S(=O)(=O)[O][Bi]([O]S(=O)(=O)c2ccc(C)cc2)[c]2ccccc2)cc1` [Compound 16], the “% Plaque Reduction” value in test [1] amounted to 81.8%. In addition, the “Zone of Inhibition, E. coli” value in the test with Escherichia coli is given as 1 cm. In addition, in the test on Staphylococcus aureus, the “Zone of Inhibition, S. aureus” value is listed as 1.8 cm. For the same compound, in the test on E. coli, the “MIC, E. coli” value came out at 20 µg/mL. Moreover, the “MIC, S. aureus” value with S. aureus was 0.625 µg/mL.
Consider `Cc1cc(C)[c]([Bi]([c]2ccc(C#N)cc2)[c]2c(C)cc(C)cc2C)c(C)c1` [Compound 13], for which, in the test with Escherichia coli, the “Antibacterial activity against E. coli, in words” value is on record as “little activity against E. coli” and the “Zone of Inhibition, E. coli” value was found to be 0 cm. In the test with Staphylococcus aureus, the “Antibacterial activity against S. aureus, in words” value is recorded as “showed antibacterial activity against S. aureus” and the “Zone of Inhibition, S. aureus” value turned out to be 0.9 cm.
